Source: patent US20260262643A1, “HERBICIDAL BENZOXAZINES” (FMC CORPORATION, priority 2022, published 2026)

How the values were obtained:
barnyardgrass [1] = experiment: Test C preemergence; assay type: in vivo, Echinochloa crusgalli; conditions: 0 to 100 scale (0 no effect, 100 complete control); for Plant response rating, Barnyardgrass: Preemergence, visual rating after 10 days
How it was run: (§1)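 Greenhouse herbicide screen, 10-day duration. Test chemicals in solvent/surfactant blend were sprayed onto soil at sowing (pre) or onto 2–10 cm seedlings at one to two leaves (post); injury scored visually against controls, 0 no effect to 100 complete control.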

barnyardgrass [2] = experiment: Test D flooded paddy test; assay type: in vivo, Echinochloa crus-galli; conditions: 250 g ai/ha, applied to paddy water, visual rating after 13 to 14 days, scale 0 to 100 (0 no effect, 100 complete control)
Procedure: (§2) Plant species in the flooded paddy test selected from barnyardgrass (Echinochloa crus-galli), ducksalad (Heteranthera limosa), rice (Oryza sativa), and sedge, umbrella (small-flower umbrella sedge, Cyperus difformis) were grown to the 2-leaf stage for testing. At time of treatment, test pots were flooded to 3 cm above the soil surface, treated by application of test compounds directly to the paddy water, and then maintained at that water depth for the duration of the test. Treated plants and controls were maintained in a greenhouse for 13 to 14 days, after which time all species were compared to controls and visually evaluated. Plant response ratings, summarized in Table D, are based on a scale of 0 to 100 where 0 is no effect and 100 is complete control. A dash (-) response means no test result.

green foxtail [3] = experiment: Test C preemergence; assay type: in vivo, Setaria viridis; conditions: 0 to 100 scale (0 no effect, 100 complete control); for Plant response rating, Foxtail, Green: Preemergence, visual rating after 10 days
How it was run: as §1

galium = experiment: Test C postemergence; assay type: in vivo, Galium aparine; conditions: 10 days
How it was run: as §1

rice = experiment: Test D flooded paddy test; assay type: in vivo, Oryza sativa; conditions: 250 g ai/ha, applied to paddy water, visual rating after 13 to 14 days, scale 0 to 100 (0 no effect, 100 complete control)
Procedure: as §2

barnyardgrass [4] = experiment: Test C postemergence; assay type: in vivo, Echinochloa crusgalli
How it was run: as §1

pigweed, palmer [5] = experiment: Test C preemergence; assay type: in vivo, Amaranthus palmeri; conditions: 0 to 100 scale (0 no effect, 100 complete control); for Plant response rating, Pigweed, Palmer: Preemergence, visual rating after 10 days
How it was run: as §1

blackgrass [6] = experiment: Test C postemergence; assay type: in vivo, Alopecurus myosuroides; conditions: 10 days
How it was run: as §1

kochia [7] = experiment: Test C preemergence; assay type: in vivo, Bassia scoparia; conditions: 0 to 100 scale (0 no effect, 100 complete control); for Plant response rating, Kochia: Preemergence, visual rating after 10 days
How it was run: as §1

ragweed [8] = experiment: Test C preemergence; assay type: in vivo, Ambrosia artemisiifolia; conditions: 0 to 100 scale (0 no effect, 100 complete control); for Plant response rating, Ragweed: Preemergence, visual rating after 10 days
How it was run: as §1

kochia [9] = experiment: Test C postemergence; assay type: in vivo, Bassia scoparia; conditions: 10 days
How it was run: as §1

ducksalad = experiment: Test D flooded paddy test; assay type: in vivo, Heteranthera limosa; conditions: 250 g ai/ha, applied to paddy water, visual rating after 13 to 14 days, scale 0 to 100 (0 no effect, 100 complete control)
Procedure: as §2

green foxtail [10] = experiment: Test C postemergence; assay type: in vivo, Setaria viridis; conditions: Postemergence, 1000 g ai/ha, 10 days, visual 0 to 100 scale (0 no effect, 100 complete control)
How it was run: as §1

pigweed, palmer [11] = experiment: Test C postemergence; assay type: in vivo, Amaranthus palmeri; conditions: Postemergence, 10 days, visual 0 to 100 scale (0 no effect, 100 complete control)
How it was run: as §1

horseweed = experiment: Test C postemergence; assay type: in vivo, Erigeron canadensis; conditions: 10 days
How it was run: as §1

ryegrass, Italian [12] = experiment: Test C preemergence; assay type: in vivo, Lolium multiflorum; conditions: 0 to 100 scale (0 no effect, 100 complete control); for Plant response rating, Ryegrass, Italian: Preemergence, visual rating after 10 days
How it was run: as §1

ragweed [13] = experiment: Test C postemergence; assay type: in vivo, Ambrosia artemisiifolia; conditions: 10 days
How it was run: as §1

sedge, umbrella = experiment: Test D flooded paddy test; assay type: in vivo, Cyperus difformis; conditions: 250 g ai/ha, applied to paddy water, visual rating after 13 to 14 days, scale 0 to 100 (0 no effect, 100 complete control)
Procedure: as §2

blackgrass [14] = experiment: Test C preemergence; assay type: in vivo, Alopecurus myosuroides; conditions: 0 to 100 scale (0 no effect, 100 complete control); for Plant response rating, Blackgrass: Preemergence, visual rating after 10 days
How it was run: as §1

ryegrass, Italian [15] = experiment: Test C postemergence; assay type: in vivo, Lolium multiflorum; conditions: 10 days
How it was run: as §1

soybean [16] = experiment: Test C preemergence; assay type: in vivo, Glycine max; conditions: 0 to 100 scale (0 no effect, 100 complete control)
How it was run: as §1

wheat [17] = experiment: Test C postemergence; assay type: in vivo, Triticum aestivum; conditions: 10 days
How it was run: as §1

wheat [18] = experiment: Test C preemergence; assay type: in vivo, Triticum aestivum; conditions: 0 to 100 scale (0 no effect, 100 complete control)
How it was run: as §1

oat, wild [19] = experiment: Test C preemergence; assay type: in vivo, Avena fatua; conditions: 0 to 100 scale (0 no effect, 100 complete control)
How it was run: as §1

corn [20] = experiment: Test C postemergence; assay type: in vivo, Zea mays; conditions: 10 days
How it was run: as §1

corn [21] = experiment: Test C preemergence; assay type: in vivo, Zea mays; conditions: 0 to 100 scale (0 no effect, 100 complete control)
How it was run: as §1

oat, wild [22] = experiment: Test C postemergence; assay type: in vivo, Avena fatua; conditions: 10 days
How it was run: as §1

soybean [23] = experiment: Test C postemergence; assay type: in vivo, Glycine max; conditions: 10 days
How it was run: as §1

[24] = Postemergence, 1000 g ai/ha, visual 0 to 100 scale (0 no effect, 100 complete control)
[25] = Test C, preemergence, 125 g ai/ha
[26] = 125 g ai/ha, postemergence, 0 to 100 scale, 0 no effect, 100 complete control
[27] = Postemergence, 500 g ai/ha, visual 0 to 100 scale (0 no effect, 100 complete control)
[28] = Preemergence, 500 g ai/ha, visual rating after 10 days

Structure (SMILES): Cc1cnn(-c2cccc(C(=O)N3C[C@H](C)Oc4c(Cl)cccc43)c2)c1 [Compound 207]
- Plant response rating, Barnyardgrass (barnyardgrass [1]; 1000 g ai/ha): 90
- Plant response rating, Barnyardgrass (Flood) (barnyardgrass [2]): 0
- Plant response rating, Foxtail, Green (green foxtail [3]; 1000 g ai/ha): 90
- Plant response rating, Galium (galium; [24]): 10
- Plant response rating, Rice (Flood) (rice): 0
- Plant response rating, Barnyardgrass (barnyardgrass [4]; Postemergence, 1000 g ai/ha, 0 to 100 scale, 0 no effect, 100 complete control): 30
- Plant response rating, Pigweed, Palmer (pigweed, palmer [5]; 1000 g ai/ha): 90
- Plant response rating, Blackgrass (blackgrass [6]; [24]): 10
- Plant response rating, Kochia (kochia [7]; 1000 g ai/ha): 30
- Plant response rating, Ragweed (ragweed [8]; 1000 g ai/ha): 0
- Plant response rating, Kochia (kochia [9]; [24]): 20
- Plant response rating, Ducksalad (Flood) (ducksalad): 0
- Plant response rating, Foxtail, Green (green foxtail [10]): 10
- Plant response rating, Pigweed, Palmer (pigweed, palmer [11]; 1000 g ai/ha): 90
- Plant response rating, Horseweed (horseweed; [24]): 10
- Plant response rating, Ryegrass, Italian (ryegrass, Italian [12]; 1000 g ai/ha): 90
- Plant response rating, Ragweed (ragweed [13]; [24]): 10
- Plant response rating, Sedge, Umbrella (Flood) (sedge, umbrella): 0
- Plant response rating, Blackgrass (blackgrass [14]; 1000 g ai/ha): 20
- Plant response rating, Ryegrass, Italian (ryegrass, Italian [15]; [24]): 70

Structure (SMILES): COC[C@H]1CN(C(=O)c2cccc(-n3cnc(C(C)(C)O)n3)c2)c2cccc(Cl)c2O1 [Compound 253]
- Plant response rating, Barnyardgrass (barnyardgrass [1]; 500 g ai/ha): 60
- Barnyardgrass plant response rating (barnyardgrass [1]; [25]): 50
- Plant response rating, Barnyardgrass (Flood) (barnyardgrass [2]): 0
- Plant response rating, Foxtail, Green (green foxtail [3]; 500 g ai/ha): 100
- Foxtail, Green plant response rating (green foxtail [3]; [25]): 80
- Plant response rating, Galium (galium; [26]): 100
- Plant response rating, Galium (galium; [27]): 100
- Plant response rating, Soybean (soybean [16]; [28]): 80
- Soybean plant response rating (soybean [16]; [25]): 40
- Plant response rating, Rice (Flood) (rice): 10
- Plant response rating, Barnyardgrass (barnyardgrass [4]; 125 g ai/ha, postemergence, 10 days, 0 to 100 scale, 0 no effect, 100 complete control): 20
- Plant response rating, Barnyardgrass (barnyardgrass [4]; Postemergence, 500 g ai/ha, 10 days, visual 0 to 100 scale (0 no effect, 100 complete control)): 30
- Plant response rating, Pigweed, Palmer (pigweed, palmer [5]; 500 g ai/ha): 100
- Pigweed, Palmer plant response rating (pigweed, palmer [5]; [25]): 90
- Plant response rating, Wheat (wheat [17]; [26]): 20
- Plant response rating, Wheat (wheat [17]; [27]): 70
- Plant response rating, Wheat (wheat [18]; [28]): 50
- Wheat plant response rating (wheat [18]; [25]): 0
- Plant response rating, Blackgrass (blackgrass [6]; [26]): 40
- Plant response rating, Blackgrass (blackgrass [6]; [27]): 80
- Plant response rating, Kochia (kochia [7]; 500 g ai/ha): 80
- Kochia plant response rating (kochia [7]; [25]): 60
- Plant response rating, Ragweed (ragweed [8]; 500 g ai/ha): 80
- Ragweed plant response rating (ragweed [8]; [25]): 20
- Plant response rating, Oat, Wild (oat, wild [19]; [28]): 90
- Oat, Wild plant response rating (oat, wild [19]; [25]): 30
- Plant response rating, Corn (corn [20]; [26]): 20
- Plant response rating, Corn (corn [20]; [27]): 80
- Plant response rating, Corn (corn [21]; [28]): 10
- Corn plant response rating (corn [21]; [25]): 0
- Plant response rating, Kochia (kochia [9]; [26]): 80
- Plant response rating, Kochia (kochia [9]; [27]): 80
- Plant response rating, Ducksalad (Flood) (ducksalad): 85
- Plant response rating, Pigweed, Palmer (pigweed, palmer [11]; 500 g ai/ha): 70
- Plant response rating, Horseweed (horseweed; [26]): 0
- Plant response rating, Horseweed (horseweed; [27]): 20
- Plant response rating, Ryegrass, Italian (ryegrass, Italian [12]; 500 g ai/ha): 60
- Ryegrass, Italian plant response rating (ryegrass, Italian [12]; [25]): 40
- Plant response rating, Ragweed (ragweed [13]; [26]): 70
- Plant response rating, Ragweed (ragweed [13]; [27]): 70
- Plant response rating, Oat, Wild (oat, wild [22]; [26]): 50
- Plant response rating, Oat, Wild (oat, wild [22]; [27]): 90
- Plant response rating, Sedge, Umbrella (Flood) (sedge, umbrella): 70
- Plant response rating, Blackgrass (blackgrass [14]; 500 g ai/ha): 50
- Blackgrass plant response rating (blackgrass [14]; [25]): 20
- Plant response rating, Ryegrass, Italian (ryegrass, Italian [15]; [26]): 50
- Plant response rating, Ryegrass, Italian (ryegrass, Italian [15]; [27]): 50
- Plant response rating, Soybean (soybean [23]; [26]): 100
- Plant response rating, Soybean (soybean [23]; [27]): 100
